Measurements taken from the CheMixHub viscosity set.

Assay: xn = mol fraction of the nth substance listed

CC(C)NC(C)C + CCCCOCCO
viscosity [mPa·s], 100 kPa
Conditions	298.15 K	303.15 K	308.15 K
x2 = 0.0501	0.42	0.4	0.38
x2 = 0.1005	0.47	0.44	0.42
x2 = 0.15	0.54	0.5	0.47
x2 = 0.2024	0.63	0.58	0.54
x2 = 0.2999	0.8	0.73	0.68
x2 = 0.3999	1.06	0.95	0.89
x2 = 0.5001	1.38	1.23	1.14
x2 = 0.6002	1.77	1.56	1.42
x2 = 0.6997	2.14	1.85	1.68
x2 = 0.7998	2.48	2.14	1.95
x2 = 0.8999	2.74	2.39	2.14
x2 = 0.9499	2.82	2.47	2.21

CCC(=O)c1ccccc1 + CCCCOCCO
viscosity [mPa·s], 101 kPa
Conditions	x1 = 0.0996	x1 = 0.1994	x1 = 0.2992	x1 = 0.399	x1 = 0.499	x1 = 0.599	x1 = 0.6992	x1 = 0.7994	x1 = 0.8996
303.15 K	2.333	2.24	2.148	2.056	1.964	1.873	1.782	1.692	1.602
308.15 K	2.192	2.109	2.027	1.946	1.865	1.784	1.704	1.624	1.545
313.15 K	2.044	1.972	1.901	1.831	1.762	1.692	1.622	1.554	1.486
318.15 K	1.863	1.805	1.749	1.694	1.639	1.584	1.53	1.476	1.424

CC(C)(C)C(=O)O + CCCN(CCC)CCC
viscosity [mPa·s], 101 kPa
Conditions	293.15 K	298.15 K	303.15 K	308.15 K	313.15 K	318.15 K	323.15 K
x1 = 0.1	1.239	1.113	1.09	1.007	0.961	–	–
x1 = 0.2	1.593	1.416	1.371	1.265	1.163	1.088	1.017
x1 = 0.3	1.998	1.897	1.631	1.619	1.474	1.375	1.285
x1 = 0.4	3.304	2.795	2.479	2.325	2.14	1.94	1.79
x1 = 0.5	5.525	4.857	3.946	3.56	3.069	2.62	2.72
x1 = 0.6	14.34	11.43	9.15	7.47	6.17	5	4.15
x1 = 0.7	41.75	29.64	21.72	16.62	12.77	10.24	8.33
x1 = 0.725	62.84	43.6	31.12	22.68	17.62	14.04	11.21
x1 = 0.75	69.2	52.11	39.98	28.77	21.17	17.53	13.24
x1 = 0.8	54.33	40.03	28.38	21.17	16.84	13.12	10.81
x1 = 0.9	15.35	11.96	9.46	7.88	6.57	5.51	4.73

CCOC(=O)CC(C)=O + CCCO
viscosity [mPa·s], 100 kPa
Conditions	x1 = 0.0644	x1 = 0.1297	x1 = 0.2035	x1 = 0.2808	x1 = 0.3716	x1 = 0.4706	x1 = 0.5808	x1 = 0.7083	x1 = 0.8379
293.15 K	1.907	1.663	1.448	1.344	1.321	1.346	1.395	1.46	1.563
298.15 K	1.675	1.515	1.404	1.32	1.279	1.281	1.295	1.336	1.413

OCCO + CCCO
Conditions	viscosity [mPa·s]
298.15 K, 101 kPa, x1 = 0.442	4.972
298.15 K, 101.33 kPa, x1 = 0.0111	2.005
298.15 K, 101.33 kPa, x1 = 0.0207	2.055
298.15 K, 101.33 kPa, x1 = 0.0321	2.115
298.15 K, 101.33 kPa, x1 = 0.0482	2.198
298.15 K, 101.33 kPa, x1 = 0.0722	2.331
298.15 K, 101.33 kPa, x1 = 0.0979	2.467
298.15 K, 101.33 kPa, x1 = 0.1442	2.723
298.15 K, 101.33 kPa, x1 = 0.1912	3.012
298.15 K, 101.33 kPa, x1 = 0.2372	3.32
298.15 K, 101.33 kPa, x1 = 0.2938	3.751
298.15 K, 101.33 kPa, x1 = 0.345	4.192
298.15 K, 101.33 kPa, x1 = 0.3886	4.617
298.15 K, 101.33 kPa, x1 = 0.4295	5.053
298.15 K, 101.33 kPa, x1 = 0.4681	5.512
298.15 K, 101.33 kPa, x1 = 0.5096	6.052
298.15 K, 101.33 kPa, x1 = 0.5452	6.565
298.15 K, 101.33 kPa, x1 = 0.5843	7.175
298.15 K, 101.33 kPa, x1 = 0.6533	8.397
298.15 K, 101.33 kPa, x1 = 0.6993	9.322
298.15 K, 101.33 kPa, x1 = 0.7522	10.5
298.15 K, 101.33 kPa, x1 = 0.7998	11.68
298.15 K, 101.33 kPa, x1 = 0.84	12.75
298.15 K, 101.33 kPa, x1 = 0.8875	14.13
298.15 K, 101.33 kPa, x1 = 0.918	15.08
298.15 K, 101.33 kPa, x1 = 0.9609	16.5
298.15 K, 101.33 kPa, x2 = 0.0188	17.2
308.15 K, 101 kPa, x1 = 0.442	3.67
318.15 K, 101 kPa, x1 = 0.442	2.755

C=CCN=C=S + CCN(CC)c1ccccc1
303.15 K, 101 kPa
Conditions	viscosity [mPa·s]
x1 = 0.25	1.248
x1 = 0.5	1.007
x1 = 0.7	0.857
x1 = 0.75	0.822
x1 = 0.8	0.785

C=CCN=C=S + CCNc1ccccc1
viscosity [mPa·s], 101 kPa
Conditions	x1 = 0.2366	x1 = 0.4021	x1 = 0.4673	x1 = 0.5	x1 = 0.5346	x1 = 0.6032	x1 = 0.7385
298.15 K	5.955	18.81	37.55	48.24	29.45	7.747	2.277
323.15 K	2.83	6.28	9.92	11.98	8.399	3.234	1.313

OCCO + CCO
viscosity [mPa·s], 101 kPa
Conditions	x1 = 0.1	x1 = 0.2	x1 = 0.3	x1 = 0.3778	x1 = 0.4	x1 = 0.5	x1 = 0.6	x1 = 0.7	x1 = 0.8	x1 = 0.9
298.15 K	1.439	1.908	2.546	3.567	3.382	4.487	5.986	7.908	10.41	13.61
308.15 K	1.05	1.524	1.991	2.688	2.581	3.346	4.363	5.645	7.295	9.374
318.15 K	0.9744	1.253	1.604	2.13	2.053	2.598	3.325	4.216	5.306	6.652

S=C=S + CCO
298.15 K, 101 kPa
Conditions	viscosity [mPa·s]
x1 = 0.1096	0.9448
x1 = 0.1264	0.9535
x1 = 0.1726	0.9065
x1 = 0.2241	0.8407
x1 = 0.2832	0.7621
x1 = 0.4039	0.6659
x1 = 0.5848	0.5669
x1 = 0.6266	0.5466
x1 = 0.7329	0.4926

S=C=S + CCOC(C)=O
298.15 K, 101 kPa
Conditions	viscosity [mPa·s]
x2 = 0.1445	0.367
x2 = 0.3581	0.389
x2 = 0.6307	0.416
